Measurements taken from patent US6498154B1, “Cyclic regimens using quinazolinone and benzoxazine derivatives” (Wyeth, priority 1999, dated 2002).
Values joined by “and” are separate entries in the source; they are usually repeats but may differ in a detail not shown here. Equal values may be shown once.

Tested on: T47D cells
Experiment: T47D cell proliferation assay (BrdU incorporation)
Format: cell-based
Settings: half-maximal decrease in trimegestone induced BrdU incorporation, read-out: Estimated IC50
Procedure: 3. T47D Cell Proliferation Assay
The objective of this assay is the determination of progestational and antiprogestational potency by using a cell proliferation assay in T47D cells. A compound's effect on DNA synthesis in T47D cells is measured.
DMEM:F12 (1:1) (GIBCO, BRL) supplemented with 10% (v/v) fetal bovine serum (not heat-inactivated), 10 U/ml penicillin, […] streptornycin, and 2 mM GlutaMax (GIBCO, BRL).
Minimum Essential Medium (MEM) (#51200-038GIBCO, BRL) phenol red-free supplemented with 0.5% charcoal stripped fetal bovine serum, 100 U/ml penicillin, […] streptornycin, and 2 mM GlutaMax (GIBCO, BRL).
Stock T47 D cells are maintained in growth medium. For BrdU incorporation assay, cells are plated in 96-well plates (Falcon, Becton Dickinson Labware) at 10,000 cells/well in growth medium. […]
At the end of BrdU labeling, the medium is removed and BrdU incorporation is measured using a cell proliferation ELISA kit (#RPN 250, Amersham Life Science) according to manufacturer's instructions. […] Then 25 μl of 1 M sulfuric acid is added to each well to stop color reaction and optical density is read in a plate reader at 450 nm within 5 min.
Square root-transformed data are used for analysis of variance and nonlinear dose response curve fitting for both agonist and antagonist modes. […] EC50 or IC50 values are calculated from the retransformed values. […]

IC50	SMILES
0.016 nM and 0.018 nM	CC#C[C@]1(O)CC[C@H]2[C@@H]3CCC4=CC(=O)CCC4=C3[C@@H](c3ccc(N(C)C)cc3)C[C@@]21C [RU486]

Same assay, conditions: half-maximal increase in BrdU incorporation, individual studies, read-out: Estimated EC50

EC50	SMILES
0.017 nM and 0.014 nM and 0.019 nM	C[C@H](O)C(=O)[C@@]1(C)CC[C@H]2[C@@H]3CCC4=CC(=O)CCC4=C3CC[C@@]21C [Trimegestone, trimegestone]

Tested on: rat uterine decidualization
Experiment: Rat decidualization assay
Format: in vivo
Settings: average of dose-response curves, rat decidualization, s.c.
Procedure: 1. Rat decidualization assay
b. Animals (RACUC protocol #5002)
The animals are treated once daily for seven days.
Uteri are removed and trimmed of fat.
Body weight: Mean total animal body weight (default-kg)
Decidual response: [(D-C)/C]×100%

Estimated average EC50	SMILES
0.10 mg/kg, s.c.	C#C[C@]1(O)CC[C@H]2[C@@H]3CCC4=CC(=O)CC[C@@H]4[C@H]3CC[C@@]21CC [Levonorgestrel, levonorgestrel]
0.10 mg/kg, s.c.	C#C[C@]1(O)CC[C@H]2[C@@H]3CCC4=CC(=O)CC[C@@H]4[C@H]3C(=C)C[C@@]21CC [3-Ketodesogestrel, 3-ketodesogestrel]

Same assay, conditions: decrease in EC50 progesterone (5.6 mg/kg) induced decidual response, rat, s.c.

Estimated IC50	SMILES
0.21 mg/kg, s.c. and 0.14 mg/kg, s.c.	CC#C[C@]1(O)CC[C@H]2[C@@H]3CCC4=CC(=O)CCC4=C3[C@@H](c3ccc(N(C)C)cc3)C[C@@]21C [RU486]

Same assay, conditions: ovariectomized female Sprague-Dawley rats, once daily for seven days, s.c.; individual studies

SMILES	Estimated EC50 for uterine wet weight
CC(=O)[C@H]1CC[C@H]2[C@@H]3CCC4=CC(=O)CC[C@]4(C)[C@H]3CC[C@]12C [Progesterone, progesterone]	5.50 mg/kg, s.c.
C#C[C@]1(O)CC[C@H]2[C@@H]3CCC4=CC(=O)CC[C@@H]4[C@H]3CC[C@@]21CC [Levonorgestrel, levonorgestrel]	0.08 mg/kg, s.c. and 0.12 mg/kg, s.c. and 0.09 mg/kg, s.c. (2×)
CC(=O)O[C@]1(C(C)=O)CC[C@H]2[C@@H]3C[C@H](C)C4=CC(=O)CC[C@]4(C)[C@H]3CC[C@@]21C [MPA, medroxyprogesterone acetate]	0.42 mg/kg, s.c. and 0.39 mg/kg, s.c. (2×)
C#C[C@]1(O)CC[C@H]2[C@@H]3CCC4=CC(=O)CC[C@@H]4[C@H]3C(=C)C[C@@]21CC [3-Ketodesogestrel, 3-ketodesogestrel]	0.10 mg/kg, s.c. and 0.06 mg/kg, s.c. and 0.11 mg/kg, s.c.

Tested on: not given
Experiment: not given
Settings: not given

SMILES	melting point
C[C@@H]1Nc2ccc(-c3cc(F)cc(C#N)c3)cc2[C@](C)(c2ccccc2)O1 [Example 17, 3-[(2R,4S)-2,4-Dimethyl-4-phenyl-1,4-dihydro-2H-3,1-benzoxazin-6-yl]-5-fluorobenzonitrile]	128 to 129 °C
Cc1cc(C#N)sc1-c1ccc2c(c1)C(C)(C)OC(C)N2 (stereo not shown) [Example 16, 4-Methyl-5(2,4,4-trimethyl-1,4-dihydro-2H-3,1-benzoxazin-6-yl)thiophene-2-carbonitrile]	145 to 146 °C
CC1Nc2ccc(-c3csc(C#N)c3)cc2C(C)(C)O1 (stereo not shown) [Example 15, 4-(2,4,4-Trimethyl-1,4-dihydro-2H-3,1-benzoxazin-6-yl)thiophene-2-carbonitrile]	175 to 176 °C
CC1(C)CC(=O)Nc2ccc(-c3cccc(Cl)c3)cc21 [6-(3-Chlorophenyl)-4,4-dimethyl-3,4-dihydro-1H-quinolin-2-one]	211 to 215 °C
CC1Nc2ccc(-c3ccc(C#N)[nH]3)cc2C(C)(C)O1 (stereo not shown) [Example 20, 5-(2,4,4-Trimethyl-1,4-dihydro-2H-3,1-benzoxazin-6-yl)1H-pyrrole-2-carbonitrile]	201 to 202 °C
CC1Nc2ccc(-c3cc(F)cc(C#N)c3)cc2C(C)(C)O1 (stereo not shown) [Example 14, 3-Fluoro-5-(2,4,4-trimethyl-1,4-dihydro-2H-3,1-benzoxazin-6-yl)benzonitrile]	163 to 164 °C
CC1Nc2ccc(-c3ccc(C#N)s3)cc2C(C)(C)O1 (stereo not shown) [Example 13, 5-(2,4,4-Trimethyl-1,4-dihydro-2H-3,1-benzoxazin-6-yl)thiophene-2-carbonitrile]	172 to 173 °C
CC1OC(C)(C)c2cc(-c3ccc(C#N)n3C(=O)OC(C)(C)C)ccc2N1C(=O)OCC1c2ccccc2-c2ccccc21 (stereo not shown) [Example 19, 9H-Fluoren-9-ylmethyl-6-[1-(tert-butoxycarbonyl)-5-cyano-1H-pyrrol-2-yl]-2,4,4-trimethyl-2H-3,1-benzoxazine-1(4H)-carboxylate]	135 to 136 °C
CC1OC(C)(C)Nc2ccc(-c3cccc([N+](=O)[O-])c3)cc21 (stereo not shown) [Compound 3, 6-(3-Nitro-phenyl)-2,2,4,-trimethyl-1,4dihydro-2H-benzo[d][1,3]oxazine]	188 to 189 °C
CC1Nc2ccc(-c3csc(C#N)c3)cc2C2(CCCCC2)O1 (stereo not shown) [Example 26, 4-(2-Methylspiro[2H-3,1-benzoxazine-4,1′-cyclohexane]-6-yl)2-thiophenecarbonitrile]	111 to 112 °C

Results, then the molecule that gave them:

melting point	SMILES
97 to 98 °C	Cc1cc(C#N)sc1-c1ccc2c(c1)C(C)(C)OC(C(F)(F)F)N2 (stereo not shown) [Example 38, 5-[4,4-Dimethyl-2-(trifluoromethyl)-1,4-dihydro-2H-3,1-benzoxazin-6yl]-4-methylthiophene-2-carbonitrile]
240 to 242 °C (dec.)	CC1(C)CC(=S)Nc2ccc(-c3cc(F)cc(C#N)c3)cc21 [Example 46, 3-(4,4-Dimethyl-2-thioxo-1,2,3,4-tetrahydroquinolin-6-yl)5-fluorobenzonitrile]
173 to 175 °C	CC1Nc2ccc(-c3ccc(F)c(Cl)c3)cc2C(C)(C)O1 (stereo not shown) [Example 29, 6(3-Chloro-4-fluorophenyl)-2,4,4-trimethyl-1,4dihydro-2H-3,1-benzoxazine]
190 to 192 °C	CC1(C)CC(=O)Nc2ccc(-c3cccc(C#N)c3)cc21 [Example 42, 3-(4,4-Dimethyl-2-oxo-1,2,3,4-tetrahydroquinolin-6-yl)benzonitrile]
139 to 140 °C	CC1Nc2ccc(-c3cccc(F)c3)cc2C(C)(C)O1 (stereo not shown) [Example 27, 6-(3-Fluorophenyl)-2,4,4-trimethyl-1,4-dihydro-2H-3,1-benzoxazine]
144 to 146 °C	CC1Nc2ccc(-c3cccc(Cl)c3)cc2C(C)(C)O1 (stereo not shown) [Example 28, 6-(3-Chlorophenyl)-2,4,4-trimethyl-1,4-dihydro-2H-3,1-benzoxazine]
102 to 103 °C	CC1(C)OC(C(F)(F)F)Nc2ccc(-c3cc(F)cc(C#N)c3)cc21 (stereo not shown) [Example 32, 3-[4,4-Dimethyl-2-(trifluoromethyl)-1,4-dihydro-2H-3,1-benzoxazin-6-yl]-5-fluorobenzonitrile]
184 to 186 °C	CC1Nc2ccc(-c3ccc(F)c(C#N)c3)cc2C(C)(C)O1 (stereo not shown) [Example 30, 2-Fluoro-5-(2,4,4-trimethyl-1,4-dihydro-2H-3,1-benzoxazin-6-yl)benzonitrile]
193 to 194 °C	CN1C(=O)Nc2ccc(-c3cccc(Cl)c3)cc2C1(C)C1CC1 (stereo not shown) [drawing 34, R = Me, 6-(3-Chlorophenyl)-4-cyclopropyl-3,4-dimethyl3,4dihydro-1H-guinazolin-2-one]
116 to 118 °C	CC1Nc2ccc(-c3coc(C#N)c3)cc2C(C)(C)O1 (stereo not shown) [Example 31, 4-(2,4,4-Trimethyl-1,4-dihydro-2H-3,1-benzoxazin-6-yl)-2-furonitrile]
190 to 192 °C	CC1(C)CC(=O)Nc2ccc(-c3cccc(F)c3)cc21 [Example 40, 6(3-Fluorophenyl)-4,4-dimethyl-3,4-dihydroquinolin-2(1H)-one]
209 to 211 °C	CC1(C)CC(=S)Nc2ccc(-c3cccc(F)c3)cc21 [Example 44, 6-(3-Fluorophenyl)-4,4-dimethyl-3,4-dihydroquinoline-2(1H)-thione]
108 to 109 °C	CC1(C)OC(C(F)(F)F)Nc2ccc(-c3cccc(Cl)c3)cc21 (stereo not shown) [Example 39, 6-(3-Chlorophenyl)-4,4-dimethyl-2-(trifluoromethyl)-1,4-dihydro-2H-3,1-benzoxazine]
125 to 127 °C	CC1(C2CC2)NC(=O)Nc2ccc(-c3cccc(Cl)c3)cc21 (stereo not shown) [drawing 34, R = H, 6-(3-Chlorophenyl)-4-cyclopropyl-4-methyl-3,4-dihydro-1H-quinazolin-2-one]
249 to 250 °C	CC1(C)CC(=O)Nc2ccc(-c3cc(F)cc(C#N)c3)cc21 [Example 41, 3-(4,4-Dimethyl-2-oxo-1,2,3,4-tetrahydroquinolin-6-yl)-5-fluorobenzonitrile]
